Measurements published in PMC12317361, “Pharmacological Inhibition of c‐Jun N‐Terminal Kinase Activity Exacerbates Liver Damage in Schistosoma mansoni Infected Mice” (Liver International, 2025).

Target: SmJNK (S. mansoni c-Jun N-terminal kinase) (Schistosoma mansoni, UniProt A0A3Q0KT26)
Test: cellular thermal shift assay (CETSA), isothermal dose-response fingerprint in SmJNK-expressing Sf21 cells
Assay type: cell-based

SmJNK (S. mansoni c-Jun N-terminal kinase), sequence (A0A3Q0KT26 entry or part of it): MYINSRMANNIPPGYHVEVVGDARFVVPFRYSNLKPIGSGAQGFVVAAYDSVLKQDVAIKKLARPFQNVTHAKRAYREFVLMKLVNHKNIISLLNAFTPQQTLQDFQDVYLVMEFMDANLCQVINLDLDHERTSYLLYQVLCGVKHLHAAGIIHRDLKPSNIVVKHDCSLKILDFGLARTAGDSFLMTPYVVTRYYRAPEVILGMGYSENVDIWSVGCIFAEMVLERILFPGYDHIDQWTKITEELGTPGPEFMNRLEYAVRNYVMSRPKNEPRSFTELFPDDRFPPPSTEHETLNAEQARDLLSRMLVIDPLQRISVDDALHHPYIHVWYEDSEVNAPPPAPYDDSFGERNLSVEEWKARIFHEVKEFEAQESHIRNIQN

Oc1c2ccccc2c2c3c(cccc13)N=N2 [SP600125]
Kd: 650 nM
